Molecules are shown by their SMILES. Converted amounts (≈) assume the structure as drawn.

Data set [1] relates to Mycobacterium tuberculosis (Mtb) H37Rv. Nature of the data set: In vitro antituberculous activity test, Microplate Alamar Blue Assay. In kind it is cell-based. The settings on record: versus linezolid. For orientation: The colour change of resazurin is a common sign of viable cells or microbes.
The next data set deals with T1, CYP1A2 (Homo sapiens, UniProt P05177).
T1 construct: purchased Invitrogen
Nature of the data set: CYP450 remaining test (Vivid CYP450 Screening Kits). In kind it is in vitro ADME. The settings on record: isozyme 1A2.

A further data set has as its target CYP2D6 (Homo sapiens, UniProt P10635). The description is as above. On the procedure:
(§1) CYP450 remaining test was conducted using Vivid® CYP450 Screening Kits Protocol (Invitrogen), and hERG assay for cardiac toxicity test was conducted using an automated patch-clamp device, NPC-16 Patchliner (Nanion Technologies, Munchen, Germany) according to the method of C. Farre, et al. (Combinatorial Chemistry & High Throughput Screening, 2009, 12, 24-37). And, human hepatic microsomal stability test was conducted according to the method of W. A. Korfmacher, et al. (Rapid Commun. Mass Spectrom. 13, 901-907 (1999)).

The target in another data set is CYP3A4 (Homo sapiens, UniProt P08684). The description is as above. The method, then:
as §1

In the next data set the target is hERG (Homo sapiens, UniProt Q12809). Nature of the data set: hERG assay for cardiac toxicity, automated patch-clamp. The data set is classed as cell-based. A general note: Block of hERG is tested as a sign of cardiac risk.
The nature of data set [2]: Human hepatic microsomal stability test. In kind it is in vitro ADME. The settings on record: human hepatic microsomes.
Data set [3] deals with CYP1A2, CYP2D6, CYP2C9, CYP3A4. Nature of the data set: in vitro. In kind it is in vitro ADME. The settings on record: human.
The target of another data set is CYP2C9 (Homo sapiens, UniProt P11712). Nature of the data set: CYP450 remaining test (Vivid CYP450 Screening Kits).
Data set [4] deals with Staphylococcus aureus, methicillin resistant. Nature of the data set: In vitro antibacterial activity test, Agar Dilution MIC. The settings on record: 18 h. For orientation: In agar dilution, organisms are placed on agar that contains the substance at set levels.
In data set [5] the test system is Staphylococcus aureus, methicillin susceptible. The description is as above. Particulars: 18 h.
For data set [6], the system named is Coagulase negative staphylococci, methicillin resistant. Described as above. Particulars: 18 h.
In data set [7] the test system is Coagulase negative staphylococci, methicillin susceptible. The data set is described as above. Particulars: 18 h.
Data set [8] has as its system Enterococcus faecalis, vancomycin resistant. The description is as above. The settings on record: 18 h.
For data set [9], the system named is Enterococcus faecalis, vancomycin susceptible. Described as above. Particulars: 18 h.
The test system of data set [10] is Enterococcus faecium, vancomycin resistant. Described as above. The settings on record: 18 h.
Data set [11] relates to Enterococcus faecium, vancomycin susceptible. The data set is described as above. The settings on record: 18 h.
For data set [12], the system named is Staphylococcus pneumoniae, penicillin non-susceptible. Described as above. The settings on record: 18 h.
The test system of data set [13] is Staphylococcus pneumoniae, penicillin susceptible. The description is as above. The settings on record: 18 h.
Another data set deals with Staphylococcus pyogenes. Described as above. The settings on record: Staphylococcus aureus, 18 h.
Data set [14] deals with Staphylococcus agalactiae. The description is as above. The settings on record: 18 h.
In data set [15] the test system is Haemophilus influenzae, beta-lactamase-positive. The data set is described as above. The settings on record: 18 h.
Data set [16] relates to MRSA and other gram positive bacteria; Staphylococcus sp., Enterococcus sp. and Haemophilus influenza. Nature of the data set: In vitro antibacterial activity test, overall statements on the strain panel. The settings on record: various strains of Table 1.
Where [17] appears, read: automated patch-clamp, NPC-16 Patchliner.

Chain of hERG (Q12809 whole entry): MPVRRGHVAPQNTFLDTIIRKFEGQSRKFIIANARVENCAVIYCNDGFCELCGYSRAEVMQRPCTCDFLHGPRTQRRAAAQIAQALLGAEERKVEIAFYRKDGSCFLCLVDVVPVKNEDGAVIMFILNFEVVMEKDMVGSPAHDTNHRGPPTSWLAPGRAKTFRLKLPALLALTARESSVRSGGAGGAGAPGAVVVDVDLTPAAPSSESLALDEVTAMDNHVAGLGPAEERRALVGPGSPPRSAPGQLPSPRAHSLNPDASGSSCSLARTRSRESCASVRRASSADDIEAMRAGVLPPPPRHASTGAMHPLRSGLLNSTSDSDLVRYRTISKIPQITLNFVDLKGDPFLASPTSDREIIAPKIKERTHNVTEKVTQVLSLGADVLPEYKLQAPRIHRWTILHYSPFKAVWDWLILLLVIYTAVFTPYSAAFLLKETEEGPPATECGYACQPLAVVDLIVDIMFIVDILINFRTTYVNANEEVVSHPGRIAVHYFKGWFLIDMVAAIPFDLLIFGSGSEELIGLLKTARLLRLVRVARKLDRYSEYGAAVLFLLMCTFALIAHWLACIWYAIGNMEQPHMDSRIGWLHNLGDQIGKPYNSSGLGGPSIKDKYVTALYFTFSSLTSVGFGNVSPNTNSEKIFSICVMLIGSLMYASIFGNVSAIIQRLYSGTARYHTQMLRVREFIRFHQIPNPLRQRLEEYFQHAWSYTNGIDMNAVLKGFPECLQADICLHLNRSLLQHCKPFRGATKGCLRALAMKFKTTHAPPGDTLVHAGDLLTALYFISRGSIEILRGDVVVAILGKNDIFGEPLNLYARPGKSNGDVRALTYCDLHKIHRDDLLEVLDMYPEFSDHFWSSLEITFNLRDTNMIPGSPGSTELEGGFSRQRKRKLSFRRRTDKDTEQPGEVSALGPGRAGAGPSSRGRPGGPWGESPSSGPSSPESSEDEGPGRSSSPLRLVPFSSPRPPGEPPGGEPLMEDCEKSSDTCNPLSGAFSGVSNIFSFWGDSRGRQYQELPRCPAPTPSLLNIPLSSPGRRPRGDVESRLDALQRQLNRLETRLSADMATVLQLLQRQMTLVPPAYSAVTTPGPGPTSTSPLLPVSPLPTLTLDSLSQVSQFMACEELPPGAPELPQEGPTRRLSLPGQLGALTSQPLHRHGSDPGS
Chain of CYP2C9 (P11712 whole entry): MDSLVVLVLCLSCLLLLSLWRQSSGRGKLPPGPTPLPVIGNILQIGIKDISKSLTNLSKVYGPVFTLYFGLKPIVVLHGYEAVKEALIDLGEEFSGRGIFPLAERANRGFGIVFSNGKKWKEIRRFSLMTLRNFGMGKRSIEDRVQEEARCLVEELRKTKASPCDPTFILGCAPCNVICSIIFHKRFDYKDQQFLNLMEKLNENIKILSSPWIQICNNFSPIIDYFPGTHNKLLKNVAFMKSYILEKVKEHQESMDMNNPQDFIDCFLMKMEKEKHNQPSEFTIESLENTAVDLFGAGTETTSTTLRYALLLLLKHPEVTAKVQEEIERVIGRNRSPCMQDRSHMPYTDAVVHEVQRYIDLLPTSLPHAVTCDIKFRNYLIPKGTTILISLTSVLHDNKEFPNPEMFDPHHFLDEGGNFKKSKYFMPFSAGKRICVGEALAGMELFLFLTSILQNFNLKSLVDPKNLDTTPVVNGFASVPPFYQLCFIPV
Chain of CYP2D6 (P10635 whole entry): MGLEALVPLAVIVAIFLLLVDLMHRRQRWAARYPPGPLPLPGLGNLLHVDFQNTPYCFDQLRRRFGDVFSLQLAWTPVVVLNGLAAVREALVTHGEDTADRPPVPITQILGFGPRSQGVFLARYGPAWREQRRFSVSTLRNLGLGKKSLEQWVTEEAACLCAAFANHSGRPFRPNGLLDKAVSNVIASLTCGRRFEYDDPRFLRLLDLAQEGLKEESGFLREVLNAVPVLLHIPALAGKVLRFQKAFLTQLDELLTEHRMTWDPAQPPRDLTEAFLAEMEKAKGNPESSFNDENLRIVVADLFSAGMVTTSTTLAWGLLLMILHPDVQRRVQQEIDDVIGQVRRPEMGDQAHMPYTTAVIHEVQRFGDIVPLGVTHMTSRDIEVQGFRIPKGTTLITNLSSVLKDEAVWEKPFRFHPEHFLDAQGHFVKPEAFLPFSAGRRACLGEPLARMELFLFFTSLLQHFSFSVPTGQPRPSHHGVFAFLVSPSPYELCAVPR
Chain of CYP3A4 (P08684 whole entry): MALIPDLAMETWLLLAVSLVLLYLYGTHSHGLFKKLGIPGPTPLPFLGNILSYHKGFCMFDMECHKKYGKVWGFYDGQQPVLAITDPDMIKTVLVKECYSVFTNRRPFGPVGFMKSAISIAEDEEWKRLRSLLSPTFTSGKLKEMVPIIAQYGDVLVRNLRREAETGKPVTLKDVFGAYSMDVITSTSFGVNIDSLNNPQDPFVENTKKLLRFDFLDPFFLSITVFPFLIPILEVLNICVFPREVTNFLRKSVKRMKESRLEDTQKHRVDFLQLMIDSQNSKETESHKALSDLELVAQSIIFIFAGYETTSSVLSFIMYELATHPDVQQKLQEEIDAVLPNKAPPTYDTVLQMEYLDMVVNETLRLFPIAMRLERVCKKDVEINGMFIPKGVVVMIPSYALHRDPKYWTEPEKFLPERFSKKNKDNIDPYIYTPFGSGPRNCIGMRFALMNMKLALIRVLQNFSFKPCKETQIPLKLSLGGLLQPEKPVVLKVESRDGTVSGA
T1 sequence (P05177 whole entry): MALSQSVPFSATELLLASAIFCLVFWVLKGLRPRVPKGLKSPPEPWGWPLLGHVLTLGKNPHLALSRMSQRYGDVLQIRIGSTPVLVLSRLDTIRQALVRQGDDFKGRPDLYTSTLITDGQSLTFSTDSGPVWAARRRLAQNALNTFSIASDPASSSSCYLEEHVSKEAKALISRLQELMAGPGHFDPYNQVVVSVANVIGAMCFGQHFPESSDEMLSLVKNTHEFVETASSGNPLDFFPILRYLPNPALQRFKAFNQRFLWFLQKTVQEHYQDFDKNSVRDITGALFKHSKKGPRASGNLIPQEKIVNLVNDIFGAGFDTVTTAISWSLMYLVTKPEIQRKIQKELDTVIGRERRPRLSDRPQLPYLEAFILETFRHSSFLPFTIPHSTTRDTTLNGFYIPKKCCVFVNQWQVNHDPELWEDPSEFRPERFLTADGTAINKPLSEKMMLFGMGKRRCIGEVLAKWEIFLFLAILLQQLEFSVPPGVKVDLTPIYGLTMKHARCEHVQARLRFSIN

For `O=C1CC2CN(c3ccc(N4C[C@H](Cn5ccnn5)OC4=O)cc3F)CC2C1` (stereo partly drawn) [Example 4, (5R)-3-[3-fluoro-4-(5-oxo-hexahydro-cyclopenta[c]pyrrol-2-yl)phenyl]-5-(1,2,3-triazol-1-ylmethyl)oxazolidin-2-one], in data set [1], the “antituberculous activity compared to linezolid” value is reported as “more excellent antibacterial activities than linezolid”. Also, the activity on CYP1A2 is 94.9%; at CYP2D6, 108%; at CYP3A4 it was 106%; in [3] it was 73.6 to 106%; at CYP2C9, 73.7%. Also, half-maximal inhibition at hERG (setting [17]) (IC50) was put at 80.5 µM. Also, on hERG (setting [17]), the “hERG Max,” value came to 38%. Moreover, the “hERG bonding” value on hERG (in vitro hERG assay, cardiac toxicity) is listed as “does not have hERG bonding”. For the same molecule, the “Human Hepatic Microsomal stability Remaining activity after 30 minutes (%)” value in data set [2] was 83.8%. Besides, the MIC was 3.1 µg/mL (≈ 8.04 µM) in data set [4]; 3.1 µg/mL (≈ 8.04 µM) in [5]; 3.1 µg/mL (≈ 8.04 µM) in [6]; 3.1 µg/mL (≈ 8.04 µM) in data set [7]; 1.5 µg/mL (≈ 3.89 µM) in data set [8]; 1.5 µg/mL (≈ 3.89 µM) in data set [9]. For the same molecule, the MIC came to 3.1 µg/mL (≈ 8.04 µM) in data set [10]; 1.5 µg/mL (≈ 3.89 µM) in [11]; 0.3 µg/mL (≈ 0.778 µM) in [12]; 0.7 µg/mL (≈ 1.82 µM) in data set [13]; 0.3 µg/mL (≈ 0.778 µM) in the data set with Staphylococcus pyogenes; 0.7 µg/mL (≈ 1.82 µM) in data set [14]. In addition, the MIC in data set [15] was determined as 1.5 µg/mL (≈ 3.89 µM). Further, the “antibacterial activity against the strain panel” value in data set [16] is reported as “high antibacterial activities”.

The values above are taken from patent publication US8507540B2, “Oxazolidinone derivatives containing new bicyclic group, having antibacterial activity, and method for treating pathogenic bacterial infections using the same” (Korean Institute of Science and Technology, priority 2011, dated 2013).
